From ChEMBL document CHEMBL3616390, “Design and synthesis of N-[6-(Substituted Aminoethylideneamino)-2-Hydroxyindan-1-yl]arylamides as selective and potent muscarinic M₁ agonists” (Bioorg Med Chem Lett, 2015)
Active and inactive are the calls of the source. The rule behind the calls is not given here.

What was measured:
[1] = molecular target: T1, Muscarinic acetylcholine receptor M2 (Homo sapiens) (UniProt P08172); assay: Agonist activity at human muscarinic M2 receptor expressed in CHO cells after 30 mins by GTPgamma35S binding assay relative to acetylcholine; assay type: functional, cell-based
T1 sequence (whole entry): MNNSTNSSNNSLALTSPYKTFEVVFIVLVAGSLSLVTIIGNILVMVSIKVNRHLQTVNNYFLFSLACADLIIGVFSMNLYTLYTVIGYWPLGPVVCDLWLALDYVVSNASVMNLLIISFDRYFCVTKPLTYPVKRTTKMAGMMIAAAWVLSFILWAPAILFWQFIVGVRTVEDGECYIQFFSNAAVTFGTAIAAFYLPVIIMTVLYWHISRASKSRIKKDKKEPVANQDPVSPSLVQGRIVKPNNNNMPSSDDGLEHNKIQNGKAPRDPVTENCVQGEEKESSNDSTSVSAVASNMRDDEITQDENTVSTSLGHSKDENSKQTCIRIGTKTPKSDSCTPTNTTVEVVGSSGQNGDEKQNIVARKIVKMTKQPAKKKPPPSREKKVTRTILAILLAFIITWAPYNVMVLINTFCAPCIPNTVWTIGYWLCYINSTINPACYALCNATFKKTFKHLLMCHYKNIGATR

[2] = Partition coefficient, log D of the compound; assay type: physicochemical; conditions: octanol/water
Rattus norvegicus [3] = assay: AUC (0 to 8 hrs) in rat at 10 mg/kg, po; assay type: ADME, organism-based; design: time < 8 hr, dose 10 mg/kg, route oral; conditions: in vivo
Rattus norvegicus [4] = assay: Cognitive enhancement activity in rat at 30 mg/kg, po by spatial learning test; assay type: functional, organism-based
[5] = Oral bioavailability in rat; assay type: ADME, organism-based; conditions: in vivo
[6] = molecular target: T2, Muscarinic acetylcholine receptor M4 (Homo sapiens, UniProt P08173); assay: Agonist activity at human muscarinic M4 receptor expressed in CHO cells after 30 mins by GTPgamma35S binding assay; assay type: functional, cell-based
T2 sequence (P08173 whole entry): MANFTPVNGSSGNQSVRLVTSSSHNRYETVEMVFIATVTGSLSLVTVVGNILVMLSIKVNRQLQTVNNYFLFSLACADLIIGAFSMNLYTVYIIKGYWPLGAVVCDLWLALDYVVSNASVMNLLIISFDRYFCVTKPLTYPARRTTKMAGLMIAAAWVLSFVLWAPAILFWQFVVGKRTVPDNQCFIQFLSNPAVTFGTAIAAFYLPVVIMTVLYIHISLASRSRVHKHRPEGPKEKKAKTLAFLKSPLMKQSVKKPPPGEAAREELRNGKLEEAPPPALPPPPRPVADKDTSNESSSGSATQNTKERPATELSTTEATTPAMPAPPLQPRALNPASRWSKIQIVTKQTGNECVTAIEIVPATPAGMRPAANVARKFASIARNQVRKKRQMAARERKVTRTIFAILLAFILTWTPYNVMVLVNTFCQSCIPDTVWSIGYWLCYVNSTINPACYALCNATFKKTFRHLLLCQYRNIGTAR

Plasma = assay: Metabolic stability in rat plasma; assay type: ADME, cell-free
[7] = Dissociation constant, pKa of the compound; assay type: physicochemical
[8] = molecular target: T3, Muscarinic acetylcholine receptor M4 (Homo sapiens) (UniProt P08173); assay: Agonist activity at human muscarinic M4 receptor expressed in CHO cells after 30 mins by GTPgamma35S binding assay relative to acetylcholine; assay type: functional, cell-based
T3 sequence (whole entry): T2 sequence (P08173 whole entry)

[9] = Drug uptake in rat whole brain at 10 mg/kg, po measured at 3 hrs; assay type: ADME, organism-based; conditions: read-out: Drug uptake
[10] = molecular target: T4, Muscarinic acetylcholine receptor M2 (Homo sapiens, UniProt P08172); assay: Agonist activity at human muscarinic M2 receptor expressed in CHO cells after 30 mins by GTPgamma35S binding assay; assay type: functional, cell-based
T4 sequence (P08172 whole entry): T1 sequence (whole entry)

[11] = molecular target: T5, Muscarinic acetylcholine receptor M1 (Homo sapiens, UniProt P11229); assay: Agonist activity at human muscarinic M1 receptor expressed in CHO cells after 30 mins by GTPgamma35S binding assay; assay type: functional, cell-based
T5 sequence (P11229 whole entry): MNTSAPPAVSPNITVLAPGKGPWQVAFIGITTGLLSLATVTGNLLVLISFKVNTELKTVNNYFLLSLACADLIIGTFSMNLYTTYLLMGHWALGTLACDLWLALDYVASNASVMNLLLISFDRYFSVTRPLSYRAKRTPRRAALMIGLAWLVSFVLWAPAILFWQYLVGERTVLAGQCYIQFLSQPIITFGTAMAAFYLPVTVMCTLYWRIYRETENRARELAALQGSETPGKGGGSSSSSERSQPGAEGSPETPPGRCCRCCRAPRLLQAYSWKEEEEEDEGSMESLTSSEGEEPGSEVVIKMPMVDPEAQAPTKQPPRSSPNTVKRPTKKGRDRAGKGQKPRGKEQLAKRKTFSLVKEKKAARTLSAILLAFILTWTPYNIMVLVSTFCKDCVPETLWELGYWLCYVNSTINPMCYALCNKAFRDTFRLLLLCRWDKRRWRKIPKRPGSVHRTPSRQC

[12] = Drug degradation in rat plasma assessed as formamidine hydrolysis after 4 hrs; assay type: ADME, cell-free; conditions: read-out: Drug degradation
[13] = molecular target: T6, Muscarinic acetylcholine receptor M5 (Homo sapiens, UniProt P08912); assay: Agonist activity at human muscarinic M5 receptor expressed in CHO cells after 30 mins by GTPgamma35S binding assay; assay type: functional, cell-based; conditions: cho
T6 sequence (P08912 whole entry): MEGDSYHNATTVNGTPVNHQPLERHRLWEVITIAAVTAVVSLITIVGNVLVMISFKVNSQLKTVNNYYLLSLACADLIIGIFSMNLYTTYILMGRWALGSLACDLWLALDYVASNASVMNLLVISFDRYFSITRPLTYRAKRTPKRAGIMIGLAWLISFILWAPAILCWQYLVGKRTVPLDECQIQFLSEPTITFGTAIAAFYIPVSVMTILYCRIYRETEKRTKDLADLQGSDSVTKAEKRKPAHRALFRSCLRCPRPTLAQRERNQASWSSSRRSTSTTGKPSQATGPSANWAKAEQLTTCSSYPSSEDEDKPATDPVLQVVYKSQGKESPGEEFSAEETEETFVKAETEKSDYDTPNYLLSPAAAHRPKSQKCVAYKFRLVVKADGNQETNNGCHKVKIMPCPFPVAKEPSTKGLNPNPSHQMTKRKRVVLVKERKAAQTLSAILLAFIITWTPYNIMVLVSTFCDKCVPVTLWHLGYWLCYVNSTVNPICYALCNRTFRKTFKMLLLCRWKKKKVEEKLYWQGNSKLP

[14] = molecular target: T7, Muscarinic acetylcholine receptor M1 (Homo sapiens) (UniProt P11229); assay: Agonist activity at human muscarinic M1 receptor expressed in CHO cells after 30 mins by GTPgamma35S binding assay relative to oxotremorine-M; assay type: functional, cell-based
T7 sequence (whole entry): T5 sequence (P11229 whole entry)

[15] = molecular target: T1, Muscarinic acetylcholine receptor M2 (Homo sapiens); assay: Agonist activity at human muscarinic M2 receptor expressed in CHO cells after 30 mins by GTPgamma35S binding assay relative to oxotremorine-M; assay type: functional, cell-based
[16] = molecular target: Muscarinic acetylcholine receptor M3 (Homo sapiens, UniProt P20309); assay: Agonist activity at human muscarinic M3 receptor expressed in CHO cells after 30 mins by GTPgamma35S binding assay; assay type: functional, cell-based; conditions: cho
[17] = molecular target: T3, Muscarinic acetylcholine receptor M4 (Homo sapiens); assay: Agonist activity at human muscarinic M4 receptor expressed in CHO cells after 30 mins by GTPgamma35S binding assay relative to oxotremorine-M; assay type: functional, cell-based
[18] = molecular target: T1, Muscarinic acetylcholine receptor M2 (Homo sapiens); assay: Agonist activity at human muscarinic M2 receptor expressed in CHO cells at 280 nM after 30 mins by GTPgamma35S binding assay relative to control; assay type: functional, cell-based
[19] = Oral bioavailability in monkey; assay type: ADME, organism-based, Macaca mulatta; conditions: rhesus monkey, in vivo
Rattus norvegicus [20] = assay: AUC (0 to 6 hrs) in rat at 10 mg/kg, po; assay type: ADME, organism-based; design: time < 6 hr, dose 10 mg/kg, route oral; conditions: in vivo
Rattus norvegicus [21] = assay: Cognitive enhancement activity in po dosed rat by 8-arm radial maze test; assay type: functional; conditions: read-out: MED

Sequence of Muscarinic acetylcholine receptor M3 (P20309 whole entry): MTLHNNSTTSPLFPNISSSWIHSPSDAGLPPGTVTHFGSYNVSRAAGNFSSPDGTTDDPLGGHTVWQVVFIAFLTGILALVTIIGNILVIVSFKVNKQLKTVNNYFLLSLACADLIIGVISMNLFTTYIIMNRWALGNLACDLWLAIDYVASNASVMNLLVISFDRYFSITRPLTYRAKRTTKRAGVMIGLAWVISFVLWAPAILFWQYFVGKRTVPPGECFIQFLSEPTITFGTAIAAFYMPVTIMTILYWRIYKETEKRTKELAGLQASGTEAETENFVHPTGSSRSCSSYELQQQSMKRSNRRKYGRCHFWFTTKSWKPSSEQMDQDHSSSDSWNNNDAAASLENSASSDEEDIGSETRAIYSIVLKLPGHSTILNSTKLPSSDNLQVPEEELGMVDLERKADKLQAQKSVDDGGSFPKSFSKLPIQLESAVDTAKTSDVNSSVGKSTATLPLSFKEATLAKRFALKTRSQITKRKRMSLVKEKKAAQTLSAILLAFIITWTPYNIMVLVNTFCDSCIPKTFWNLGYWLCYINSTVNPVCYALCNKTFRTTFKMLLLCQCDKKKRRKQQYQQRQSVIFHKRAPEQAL

SMILES | logD [2] | AUC (Rattus norvegicus [3]) [ng·h/g] | EC50 [6] [nM] | pKa [7] | concentration at 3 h [9] [ng/g] | EC50 [10] [nM] | EC50 [11] [nM] | EC50 [13] | Efficacy [14] [%] | Efficacy [15] [%] | EC50 [16] | Efficacy [17] [%] | further results
CN1CCCC/C1=N\c1ccc2c(c1)[C@@H](NC(=O)c1ccc(Br)cc1)[C@H](O)C2 | 1.04 | 506 | 113 | 9.9 | < 40 | 24 | 80 | – | – | – | – | – | Efficacy [1]: 28%; Activity (Rattus norvegicus [4]): Active; bioavailability [5]: 68%; Stability (Plasma): Stable; Efficacy [8]: 34%
C/C(=N\c1ccc2c(c1)[C@@H](NC(=O)c1ccc(Br)cc1)[C@H](O)C2)N1CCCCC1 | – | – | – | – | – | – | – | – | – | – | – | – | metabolised at 4 h [12]: 5%
C/C(=N\c1ccc2c(c1)[C@@H](NC(=O)c1ccc(Br)cc1)[C@H](O)C2)Nc1ccc(F)cc1 | – | 1369 | 1110 | 8.2 | 147 | 749 | 51 | Not Active | 79.4 | 25.2 | Not Active | 23.1 | –
O=C(N[C@@H]1c2cc(/N=C/N3CCCC3)ccc2C[C@H]1O)c1ccc(Br)cc1 | – | – | – | – | – | – | – | – | – | – | – | – | metabolised at 4 h [12]: 50%; Emax [18]: 80%
C/C(=N\c1ccc2c(c1)[C@@H](NC(=O)c1ccc(Br)cc1)[C@H](O)C2)N(C)c1ccc(F)cc1 | – | 4681 | – | – | 891 | – | 118 | Not Active | 31.5 | < 20 | Not Active | < 20 | –
C/C(=N\c1ccc2c(c1)[C@@H](NC(=O)c1ccc(Br)cc1)[C@H](O)C2)NCc1ccc(F)cc1 | 2.01 | 634 | 115 | 8.49 | 64 | 71.8 | 20.9 | Not Active | 89.9 | 31.8 | Not Active | 33.5 | –
C/C(=N\c1ccc2c(c1)[C@@H](NC(=O)c1ccc(-c3ccccc3)cc1)[C@H](O)C2)N(C)Cc1ccc(F)cc1 | 2.3 | – | 1060 | 8.3 | 141 | 693 | 22.8 | Not Active | 110 | 34.6 | Not Active | 29.7 | bioavailability [19]: 46%; bioavailability [5]: 32%; AUC (Rattus norvegicus [20]): 533 ng·h/g; minimal effective dose (Rattus norvegicus [21]): 1 mg/kg
